Test results reported in patent US20230080054A1 (ILDONG PHARMACEUTICAL CO., LTD., priority 2021, published 2023).

Experiments:
[1] = target: T1, human ANO6 (Homo sapiens, UniProt Q4KMQ2); assay: YFP quenching assay (ANO6 ion channel activity); assay type: cell-based; settings: 10 μM ionomycin; for inhibition at 1 µM: test compound 1 μM, read-out: Inhibition Level 1 μM; for inhibition at 30 µM: test compound 30 μM, read-out: Inhibition Level 30 μM
T1 construct: expressed in transfected cells
T1 sequence (Q4KMQ2 1-931 isoform Q4KMQ2-2): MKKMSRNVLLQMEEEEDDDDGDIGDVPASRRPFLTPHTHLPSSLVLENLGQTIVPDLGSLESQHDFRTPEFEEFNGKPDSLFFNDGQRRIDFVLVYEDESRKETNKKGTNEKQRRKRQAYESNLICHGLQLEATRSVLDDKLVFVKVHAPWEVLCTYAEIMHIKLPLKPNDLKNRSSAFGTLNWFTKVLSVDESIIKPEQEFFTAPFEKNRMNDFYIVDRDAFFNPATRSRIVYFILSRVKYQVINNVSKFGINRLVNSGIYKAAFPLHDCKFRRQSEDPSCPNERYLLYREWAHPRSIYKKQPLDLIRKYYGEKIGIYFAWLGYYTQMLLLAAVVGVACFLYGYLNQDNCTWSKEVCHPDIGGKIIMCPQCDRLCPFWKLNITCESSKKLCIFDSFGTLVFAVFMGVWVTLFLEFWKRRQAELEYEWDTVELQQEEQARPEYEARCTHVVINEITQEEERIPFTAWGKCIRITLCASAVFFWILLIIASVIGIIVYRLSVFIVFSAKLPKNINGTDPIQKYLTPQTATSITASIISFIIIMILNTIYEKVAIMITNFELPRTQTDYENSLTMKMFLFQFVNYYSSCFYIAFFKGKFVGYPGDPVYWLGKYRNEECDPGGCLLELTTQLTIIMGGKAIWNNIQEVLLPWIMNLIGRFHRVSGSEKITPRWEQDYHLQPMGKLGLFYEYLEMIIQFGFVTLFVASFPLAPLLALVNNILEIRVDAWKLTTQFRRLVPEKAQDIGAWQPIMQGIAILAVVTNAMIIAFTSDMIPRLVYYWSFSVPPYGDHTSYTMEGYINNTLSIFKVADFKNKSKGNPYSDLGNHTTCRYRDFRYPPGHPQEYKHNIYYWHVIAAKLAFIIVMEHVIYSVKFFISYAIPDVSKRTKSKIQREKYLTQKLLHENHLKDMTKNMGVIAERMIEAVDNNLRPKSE
In short: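 FRT cells stably expressing human ANO6 and YFP-H148Q/I152L/F46L, preincubated 10 min at 40° C with compounds (1% DMSO) in PBS. Quench read every 0.4 s after injecting 140 mM SCN- with 10 μM ionomycin; % inhibition from the 3.6–7.6 s fluorescence difference, normalised to no-ionomycin (100%) and ionomycin-only (0%) wells, duplicate or triplicate.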

[2] = target: T1, human ANO6; assay: LACT C2 assay (phosphatidylserine scramblase function assay); assay type: cell-based; settings: FRT cells expressing human ANO6, 10 μM ionomycin; for inhibition at 0.1 µM: test compound 100 nM, read-out: Inhibition Level 100 nM; for inhibition at 1 µM: test compound 1 μM, read-out: Inhibition Level 1 μM
In short: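 Inhibition was normalised between ionomycin-only (0%) and untreated (100%) wells, with triplicates averaged. Readout was background-corrected Lact-C2-GFP (500 nM) fluorescence from imaged cells. The cells were FRT cells stably expressing human ANO6, given compound at 1% DMSO for 10 min before a 10 min 10 μM ionomycin challenge.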

Structure (SMILES)	inhibition at 1 µM [1] [%]	inhibition at 0.1 µM [2] [%]	inhibition at 1 µM [2] [%]	inhibition at 30 µM [1] [%]
O=C(NC1CC1c1ccccc1)c1cccc(Nc2ccc(-c3ccccc3)nn2)c1 (stereo not drawn) [Compound 67, N-(2-phenylcyclopropyl)-3-[(6-phenylpyridazin-3-yl)amino]benzamide]	≥ 60	≥ 60	≥ 60	
O=C(NCCc1ccccc1)c1cccc(Nc2ccc(-c3ccccc3)cn2)c1 [Compound 114, N-(2-phenylethyl)-3-[(5-phenylpyridin-2-yl)amino]benzamide]	≥ 60	< 30	≥ 60	
O=C(NCCc1cc(F)cc(F)c1)c1cccc(Nc2ncc(-c3ccccc3)cn2)c1 [Compound 82, N-[2-(3,5-difluorophenyl)ethyl]-3-[(5-phenylpyrimidin-2-yl)amino]benzamide]	30 to 60		< 30	
Cc1ccc(CNC(=O)c2cccc(Nc3ccc(-c4ccccc4)nc3)c2)o1 [Compound 6, N-[(5-methylfuran-2-yl)methyl]-3-[(6-phenylpyridin-3-yl)amino]benzamide]	≥ 60		30 to 60	≥ 60
CCC(CC)NC(=O)c1cccc(Nc2ccc(-c3ccccc3)nn2)c1 [Compound 66, N-(pentan-3-yl)-3-[(6-phenylpyridazin-3-yl)amino]benzamide]	30 to 60		< 30	
O=C(NCC1CCCCC1)c1cccc(Nc2ccc(-c3ccccc3)nn2)c1 [Compound 31, N-(cyclohexylmethyl)-3-[(6-phenylpyridazin-3-yl)amino]benzamide]	≥ 60	< 30	≥ 60	≥ 60
O=C(NCc1ccoc1)c1cccc(Nc2ccc(-c3ccccc3)nn2)c1 [Compound 45, N-[(furan-3-yl)methyl]-3-[(6-phenylpyridazin-3-yl)amino]benzamide]	≥ 60		< 30	
O=C(NCC1CCCC1)c1cccc(Nc2ccc(-c3ccccc3)nn2)c1 [Compound 33, N-(cyclopentylmethyl)-3-[(6-phenylpyridazin-3-yl)amino]benzamide]	≥ 60	< 30	≥ 60	≥ 60
COc1cccc(CCNC(=O)c2cccc(Nc3ncc(-c4cccc(F)c4)cn3)c2)c1 [Compound 78, 3-{[5-(3-fluorophenyl)pyrimidin-2-yl]amino}-N-[2-(3-methoxyphenyl)ethyl]benzamide]	30 to 60	30 to 60	≥ 60	

Next, values leading:

inhibition at 1 µM [1] [%]	inhibition at 0.1 µM [2] [%]	inhibition at 1 µM [2] [%]	inhibition at 30 µM [1] [%]	Structure (SMILES)
≥ 60	< 30	< 30	≥ 60	O=C(NCCc1ccccc1)c1cccc(Nc2ccc(-c3ccc(F)cc3)nn2)c1 [Compound A4]
≥ 60		30 to 60		Cc1ccc(CNC(=O)c2cccc(Nc3ccc(-c4cccc(F)c4)nn3)c2)o1 [Compound A87]
30 to 60	< 30	30 to 60	≥ 60	CCN(CCNC(=O)c1cccc(Nc2ccc(-c3ccccc3)nn2)c1)Cc1ccccc1 [Compound A41]
≥ 60	< 30	< 30	≥ 60	CCCNC(=O)c1cccc(Nc2ccc(-c3ccccc3)nn2)c1 [Compound A68]
≥ 60	< 30	< 30	≥ 60	CC(C)CNC(=O)c1cccc(Nc2ccc(-c3ccc(F)cc3)nn2)c1 [Compound A11]
≥ 60	30 to 60		≥ 60	CCCOc1ccc(CNC(=O)c2cccc(Nc3ccc(-c4ccccc4)nn3)c2)cc1 [Compound A47]
30 to 60	< 30	30 to 60	≥ 60	O=C(NCc1ccc(Cl)cc1)c1cccc(Nc2ccc(-c3ccccc3)nn2)c1 [Compound A49]
